Data reported in the NIST ThermoML archive (doi:10.1016/j.jct.2008.01.006).
Numbers after ± are expanded uncertainties.

Conditions: Liquid, Vibrating tube method

CCCCCCN [1-hexanamine]
mass density [kg/m3]
Conditions	293.15 K	303.15 K	313.15 K	323.15 K	333.15 K	343.15 K	353.15 K
100 kPa	765.1 ± 0.3	756.2 ± 0.4	748.2 ± 0.4	738.9 ± 0.4	730.2 ± 0.4	721.3 ± 0.4	712.4 ± 0.5
10000 kPa	771.5 ± 0.4	763.5 ± 0.4	755.4 ± 0.4	746.9 ± 0.5	738.7 ± 0.5	730.6 ± 0.5	722.3 ± 0.5
20000 kPa	777.6 ± 0.5	770.2 ± 0.5	762.3 ± 0.5	754.2 ± 0.5	746.3 ± 0.5	738.8 ± 0.6	731.1 ± 0.6
30000 kPa	783.4 ± 0.6	776.3 ± 0.6	768.6 ± 0.6	761 ± 0.6	753.4 ± 0.6	746.4 ± 0.6	739 ± 0.7
40000 kPa	788.8 ± 0.6	781.9 ± 0.7	774.6 ± 0.7	767.2 ± 0.7	759.9 ± 0.7	753.2 ± 0.7	746 ± 0.8
50000 kPa	793.8 ± 0.7	787.2 ± 0.7	780.2 ± 0.8	772.9 ± 0.8	765.9 ± 0.8	759.6 ± 0.8	752.5 ± 0.9
60000 kPa	798.8 ± 0.8	792.2 ± 0.8	785.3 ± 0.8	778.4 ± 0.9	771.6 ± 0.9	765.6 ± 0.9	759 ± 0.9
70000 kPa	803.3 ± 0.9	796.9 ± 0.9	790.3 ± 0.9	783.5 ± 1	776.9 ± 1	771 ± 1	764.6 ± 1
80000 kPa	807.7 ± 1	801.5 ± 1	794.9 ± 1	788.4 ± 1	781.9 ± 1.1	776.2 ± 1.1	770 ± 1.1
90000 kPa	811.9 ± 1	805.8 ± 1.1	799.4 ± 1.1	792.9 ± 1.1	786.7 ± 1.2	781.1 ± 1.2	775.1 ± 1.2
100000 kPa	815.9 ± 1.1	810 ± 1.1	803.7 ± 1.2	797.3 ± 1.2	791.2 ± 1.2	785.9 ± 1.3	780 ± 1.3
110000 kPa	819.8 ± 1.2	814 ± 1.2	807.8 ± 1.2	801.7 ± 1.3	795.7 ± 1.3	790.3 ± 1.3	784.6 ± 1.4
120000 kPa	823.5 ± 1.2	817.9 ± 1.3	811.7 ± 1.3	805.8 ± 1.3	799.9 ± 1.4	794.6 ± 1.4	789.1 ± 1.5
130000 kPa	827.1 ± 1.3	821.6 ± 1.3	815.5 ± 1.4	809.7 ± 1.4	803.8 ± 1.5	798.8 ± 1.5	793.2 ± 1.5
140000 kPa	830.5 ± 1.4	825.1 ± 1.4	819.1 ± 1.4	813.5 ± 1.5	807.6 ± 1.5	802.7 ± 1.6	797.3 ± 1.6

CCCCCN [1-pentanamine]
mass density [kg/m3]
Conditions	293.15 K	303.15 K	313.15 K	323.15 K	333.15 K	343.15 K	353.15 K
100 kPa	754.1 ± 0.4	744.7 ± 0.4	735.6 ± 0.4	726.4 ± 0.4	716.9 ± 0.4	707.5 ± 0.5	698 ± 0.5
10000 kPa	760.9 ± 0.4	752.6 ± 0.5	743.8 ± 0.5	735.1 ± 0.5	726.1 ± 0.5	717.8 ± 0.5	708.7 ± 0.6
20000 kPa	767.4 ± 0.5	759.6 ± 0.5	751.1 ± 0.5	742.8 ± 0.6	734.3 ± 0.6	726.5 ± 0.6	718 ± 0.6
30000 kPa	773.4 ± 0.6	765.9 ± 0.6	757.9 ± 0.6	749.8 ± 0.6	741.7 ± 0.7	734.4 ± 0.7	726.3 ± 0.7
40000 kPa	778.9 ± 0.7	772 ± 0.7	764.1 ± 0.7	756.3 ± 0.7	748.5 ± 0.8	741.6 ± 0.8	733.9 ± 0.8
50000 kPa	784.2 ± 0.8	777.4 ± 0.8	769.8 ± 0.8	762.3 ± 0.8	754.8 ± 0.9	748.2 ± 0.9	740.8 ± 0.9
60000 kPa	789.3 ± 0.8	782.7 ± 0.9	775.2 ± 0.9	768 ± 0.9	760.7 ± 0.9	754.3 ± 1	747.4 ± 1
70000 kPa	794 ± 0.9	787.4 ± 1	780.3 ± 1	773.2 ± 1	766.3 ± 1	760 ± 1.1	753.3 ± 1.1
80000 kPa	798.5 ± 1	792.1 ± 1	785.1 ± 1.1	778.2 ± 1.1	771.5 ± 1.1	765.4 ± 1.2	759.1 ± 1.2
90000 kPa	802.8 ± 1.1	796.5 ± 1.1	789.7 ± 1.1	783 ± 1.2	776.5 ± 1.2	770.6 ± 1.2	764.2 ± 1.3
100000 kPa	806.9 ± 1.2	800.8 ± 1.2	794.1 ± 1.2	787.6 ± 1.3	781.1 ± 1.3	775.4 ± 1.3	769.3 ± 1.4
110000 kPa	810.8 ± 1.2	805 ± 1.3	798.4 ± 1.3	792.1 ± 1.3	785.6 ± 1.4	780.1 ± 1.4	774.1 ± 1.4
120000 kPa	814.7 ± 1.3	808.8 ± 1.3	802.4 ± 1.4	796.2 ± 1.4	790 ± 1.5	784.4 ± 1.5	778.6 ± 1.5
130000 kPa	818.4 ± 1.4	812.5 ± 1.4	806.4 ± 1.4	800.3 ± 1.5	794.2 ± 1.5	788.7 ± 1.6	782.9 ± 1.6
140000 kPa	822 ± 1.4	816.1 ± 1.5	810.1 ± 1.5	804.2 ± 1.6	798 ± 1.6	792.8 ± 1.6	787.2 ± 1.7
